Our source for the survival, CC50 and EC50 values is ChEMBL document CHEMBL5523692, “Discovery of novel biaryl benzoxazepinones as dual-mode receptor-interacting protein kinase-1 (RIPK1) inhibitors” (Bioorg Med Chem, 2024).

One data set has as its system Mus musculus. The data set can be described thus: Anti-necroptic activity in TNF-alpha/Z-VAD-FMK-induced SIRS C57BL/6J mouse model assessed as survival rate at 2.5 mg/kg, po pre-administered via gavage for 1 hr followed by […] of Z-VAD-FMK stimulation for 15 mins and subsequent TNF-alpha stimulation for 45 mins and re-current […] of Z-VAD-FMK stimulation and measured after 60 hrs relative to control. Conditions: 62 h, time 3720 min. Type of data set: functional.

A short description of data set [1]: Cytotoxicity against human HT-29 cells by Cell Titer Glo assay. It is filed as toxicity, cell-based.
The next data set concerns HT-29. The data set can be described thus: Anti-necroptic activity against human HT-29 cells assessed as cell viability pretreated with compound followed by TNF-alpha/Smac mimetic/Z-VAD-FMK stimulation for 16 hrs by Cell Titer Glo assay. Type of data set: functional, cell-based. A general note: In ATP-based viability assays light output follows the ATP content of the culture.

Turning to `CN1C(=O)[C@@H](NC(=O)c2nnc(Cc3ccccc3)[nH]2)COc2ccccc21` [GSK2982772], the survival at 2.5 mg/kg with Mus musculus was 50%. The molecule also had a CC50 in data set [1] of more than 100 µM. In the data set with HT-29, the EC50 worked out at 2.9 nM.

Broadly, the CC50 is the concentration that lowers cell viability or growth by half. A high value points to better tolerance by the cells. Broadly, the EC50 is the concentration giving half of the maximal effect.
